Experimental data: patent US20030158213A1, “Xanthine oxidase inhibition as a strategy to alleviate oxidative impairment of vascular function” (priority 2001, published 2003)
“Also recorded” adds a separate entry of the source. Where two headings read alike, the source gives them in different places.

Key:
aorta of SCD mice = assay: Vessel O2.- production by coelenterazine-enhanced chemiluminescence; type: cell-based, mouse; details: for rates of O2.— production enhanced by xanthine: SCD mouse vessels pretreated, CuZn SOD 30 U/ml, allopurinol 100 μM, BOF-4272 25 μM
From the text: Values represent mean±SD (n=4). Statistical analysis was by two-way ANOVA with the Duncan's post hoc test. *, p<0.05 compared to control. +, p<0.05 compared to xanthine-treated sickle cell vessels. **, […] compared to control and all treated vessel groups.

HbA and HbS red cells [1] = assay: Red cell O2.- release by cytochrome c reduction; type: cell-based, human
Procedure: If red blood cells from sickle cell patients produce increased amounts of O2. and H2O2 as compared to red blood cells from healthy donors, then local depletion of .NO might be explained on this basis. […] The mean Hb content of HbA and HbS red cell preparations was similar. DMNQ (100 μM) was added to stimulate red cell O2.— production.
Blood was collected from healthy HbA adult volunteers and homozygous HbS patients in anticoagulated (EDTA) vacu-containers. All individuals were evaluated for cytochrome b5 reductatse and glucose-6-phosphate dehydorgenase activity and none were reported deficient. […] Packed RBCs were diluted to a hematocrit of 2.5% (vol/vol) hemoglobin concentrations as determined with Drabkin's reagent at 540 nm, and rates of O2. release over 2 hours were quanitifed spectrophotometrically by CuZn SOD-inhibitable (100 units/ml, equivalent to approximately 33 ug/ml SOD) reduction of cytochrome c (50 uM) at 550 nm(εM=21 mM^−1cm^−1). In some experiments, O2. release was measured in cells pretreated with DMNQ (Oxis, 100 uM), 3-hydroxy-1,2-dimethyl-4-pyridone (HDP, Aldrich, 0.5 mM), and 4,4-diisothiocyano-2,2 disulfonic acid stilbene (DIDS, Sigma, 200 uM). Possible Hb intereference in determination of rates of cytochrome c reduction was evaluated by performing a singular value decomposition analysis (Matlab, Mathworks, Natick, Mass.).

eNOS = assay: NOS activity in lysates of BAEC after oxidant stress; type: cell-based, bovine; details: 2 hr, mean ± SEM, n = 3
From the text: Also, XO can serve as a source of H2O2 that in turn will support the oxidative reactions of myeloperoxidase (NO consumption and the generation of chlorinating, nitrating and oxidizing species). Another potential mechanism explaining XO inhibition of endothelial-dependent relaxation and cGMP formation may be oxidant-induced changes in the expression and/or activity of eNOS, especially during more chronic exposure to reactive oxygen species. Bovine aortic endothelial cells (BAEC) were exposed to the redox-cycling quinone 2,3-dimethoxynapthoquinone (DMNQ), which generates controllable and low rates of O2.— and H2O2. Following treatment with DMNQ for 2 hr, the capacity of endothelial cell lysates to oxidize arginine to citrulline was used to indicate eNOS activity. Additional cells were incubated with 10 mU/ml XO for 1 hr, extensively washed and 100 μM xanthine was added during a 1 hr post-incubation period.

HbA and HbS red cells [2] = assay: Red cell nitric oxide consumption; type: cell-based, human; details: extracellular CuZn SOD 100 U ml^−1; DMNQ 100 μM
From the text: Values represent mean±SEM (n=4 to 14). Statistical analysis was by two-way ANOVA with Tukey post hoc test. *, p<0.05 compared with basal;
Accepting that *NO reacts at almost diffusion-limited rates with O2.— (25), the relative rates of red cell .NO consumption was utilized to probe for differences in both intra-and extracellular O2.— (and possibly LOO—) production by HbA and HbS red cells. […] The presence of endogenous lipid hydroperoxides was undetectable in both HbA and HbS RBC membranes.

xanthine oxidase = target: T1, xanthine oxidase (Homo sapiens, UniProt P47989); details: intravascular concentration of 10 μg/ml; cited from earlier work
T1 construct: host or cells: forearm blood vessels, in vivo infusion of oxypurinol

[3] = compared to allopurinol; cited from earlier work
aortic rings [4] = assay: Acetylcholine relaxation of aortic rings pre-incubated with XO; type: cell-based; details: rings incubated with XO 10 mU/ml 1 hr, washed; xanthine in buffer; heparin 10-1000 U/ml, allopurinol 10-250 μM
Procedure: (§1) Increased cell-associated XO can impair endothelial-dependent vascular signaling. When isolated aortic ring segments are incubated with XO for 1 hr and then extensively washed to remove unbound XO, endothelial-dependent relaxations in response to acetylcholine are diminished when the XO substrate xanthine is present in the buffer (FIG. 2A). Inhibition of endothelial-dependent relaxation is abrogated by post-washing treatment of the aortic rings with the XO inhibitor allopurinol, as well as heparin, which inhibits and/or competes for XO binding to endothelial cell GAGs. This ex vivo model of vascular dysfunction reinforces observations made in a model of atherosclerosis. […] Importantly, there appears to be sufficient substrate in the vasculature for XO to catalyze elevated oxidant production, without the need for exogenously added purine.

[5] = system: vessel rings prepared from sickle cell mice; assay: Relaxation of vessel rings from sickle cell mice to NO-dependent stimuli; type: cell-based, mouse; details: MnTE-2-PyP 50 μM, allopurinol 50 μM
aortic rings [6] = assay: Acetylcholine relaxation of aortic rings from cholesterol-fed rabbits; type: cell-based, rabbit; details: rings from rabbits on 1% cholesterol diet (6 weeks); heparin 1000 U/ml, allopurinol 100 μM
Procedure: as §1

guanylate cyclase = assay: Ionomycin-induced .NO-dependent cGMP formation, XO-exposed endothelial cells with smooth muscle cells; type: cell-based, bovine; details: BAEC exposed to XO 10 mU/ml 3 hr, washed; xanthine 100 μM, ionomycin 6.7 μM, 15 min; cGMP by ELISA
Procedure: Endothelial cells were cultured on Transwell filters and exposed to XO (10 mU/ml) for 3 hr and washed extensively. Filters were then transferred to dishes containing smooth muscle cells and incubated with xanthine (100 μM) and ionomycin (6.7 μM)±allopurinol for 15 min. cGMP was then determined by ELISA. (n=3);
Bovine aortic endothelial cell (BAEC) monolayers having bound and potentially internalized XO manifested an impaired ability to support ionomycin-induced, .NO-dependent cGMP formation by adjacent smooth muscle cells.

[7] = system: myocardial ischemia-reperfusion injury; details: rabbit; cited from earlier work
[8] = at pharmacologic concentrations; cited from earlier work
[9] = system: myocardial ischemia-reperfusion injury; details: clinical; cited from earlier work
[10] = system: cultured endothelial cells; details: heparin on bound XO; enzymes as pretreatment of cells; cited from earlier work

T1 sequence (P47989 whole entry, the tested form may be a part): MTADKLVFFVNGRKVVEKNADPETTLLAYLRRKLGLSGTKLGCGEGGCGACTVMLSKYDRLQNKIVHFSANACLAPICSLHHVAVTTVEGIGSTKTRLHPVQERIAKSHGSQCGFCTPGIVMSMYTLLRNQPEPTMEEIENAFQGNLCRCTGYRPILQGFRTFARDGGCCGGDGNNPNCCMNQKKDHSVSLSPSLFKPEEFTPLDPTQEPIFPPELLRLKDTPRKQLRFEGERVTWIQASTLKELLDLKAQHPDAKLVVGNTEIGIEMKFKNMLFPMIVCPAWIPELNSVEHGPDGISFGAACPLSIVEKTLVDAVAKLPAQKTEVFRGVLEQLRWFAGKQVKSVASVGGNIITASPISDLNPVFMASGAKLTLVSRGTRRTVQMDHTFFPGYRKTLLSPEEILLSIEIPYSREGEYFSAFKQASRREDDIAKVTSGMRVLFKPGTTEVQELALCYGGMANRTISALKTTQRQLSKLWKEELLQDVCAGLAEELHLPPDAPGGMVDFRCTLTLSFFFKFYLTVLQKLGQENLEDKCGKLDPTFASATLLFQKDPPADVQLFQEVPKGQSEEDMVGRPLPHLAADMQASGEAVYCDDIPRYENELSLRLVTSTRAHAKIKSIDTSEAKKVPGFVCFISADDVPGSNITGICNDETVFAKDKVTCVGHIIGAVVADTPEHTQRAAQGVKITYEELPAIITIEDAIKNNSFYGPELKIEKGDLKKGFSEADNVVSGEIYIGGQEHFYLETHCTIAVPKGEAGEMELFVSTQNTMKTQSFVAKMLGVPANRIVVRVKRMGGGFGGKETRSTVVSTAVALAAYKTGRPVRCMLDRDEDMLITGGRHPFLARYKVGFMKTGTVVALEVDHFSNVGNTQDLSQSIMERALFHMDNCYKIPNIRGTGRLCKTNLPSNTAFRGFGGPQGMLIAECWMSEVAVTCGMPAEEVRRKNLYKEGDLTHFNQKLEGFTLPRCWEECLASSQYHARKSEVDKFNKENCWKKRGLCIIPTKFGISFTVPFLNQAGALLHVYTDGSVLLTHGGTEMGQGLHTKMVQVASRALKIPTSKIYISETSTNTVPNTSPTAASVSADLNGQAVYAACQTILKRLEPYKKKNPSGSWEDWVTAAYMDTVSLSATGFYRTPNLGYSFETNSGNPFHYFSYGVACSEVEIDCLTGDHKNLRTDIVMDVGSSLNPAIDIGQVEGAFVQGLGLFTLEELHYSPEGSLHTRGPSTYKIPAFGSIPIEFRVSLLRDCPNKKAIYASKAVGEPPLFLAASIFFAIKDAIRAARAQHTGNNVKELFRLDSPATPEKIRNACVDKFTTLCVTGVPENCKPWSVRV

COc1cc(-c2cnn3c(=O)nc[n-]c23)ccc1[S+]([O-])c1ccccc1.[Na+] (stereo not shown) [BOF-4272]
rates of O2.— production enhanced by xanthine (aorta of SCD mice): returned to basal rates

O=S(=O)(O)c1cc(N=C=S)ccc1C=Cc1ccc(N=C=S)cc1S(=O)(=O)O [DDS, 4,4-diisothiocyano-2,2 disulfonic acid stilbene]
decrease in rates of cytochrome c reduction (HbA and HbS red cells [1]; pretreated with 200 μM, both HbA and HbS red cells): ~35%

COC1=C(OC)C(=O)c2ccccc2C1=O [DMNQ, 2,3-dimethoxynapthoquinone]
NOS activity (eNOS; DMNQ 5 μM): 0.75 ± 0.09 pmol/min/mg prot | NOS activity (eNOS; DMNQ 50 μM): 0.49 ± 0.60 pmol/min/mg prot | rate of .NO consumption (HbA and HbS red cells [2]): significantly increased rates of red cell .NO consumption | rates of O2. production (aorta of SCD mice; DMNQ 100 μM, positive control, both control and SCD mouse vessels): significantly enhanced rates of O2. production

Cc1c(O)c(=O)ccn1C [HDP, 3-hydroxy-1,2-dimethyl-4-pyridone]
decrease in O2.— (HbA and HbS red cells [1]; preincubation with HDP 0.5 mM, 150 mm Hg O2, pH 7.4): ~36%

O=c1[nH]c(=O)c2c[nH]nc2[nH]1 [Oxypurinol]
inhibition of xanthine oxidase activity in the forearm blood vessels (xanthine oxidase): greater than 90% | water solubility [3]: increased water solubility as compared to allopurinol

Oc1ncnc2[nH]ncc12 [allopurinol]
reversal of XO-induced reduction of vasodilation in response to acetylcholine (aortic rings [4]): reversible; also recorded: abrogated | vessel relaxation in response to NO-dependent stimuli [5]: reversal of impaired vessel relaxation | restoration of endothelial-dependent relaxation (aortic rings [6]): partially restored endothelial-dependent relaxation; also recorded: significantly reversed | reversal of XO inhibition of .NO-mediated cGMP formation (guanylate cyclase): reversible | myocardial ischemia-reperfusion injury [7]: attenuated | rates of O2.— production enhanced by xanthine (aorta of SCD mice): returned to basal rates | direct antioxidant properties [8]: no direct antioxidant properties | myocardial ischemia-reperfusion injury [9]: attenuated

CuZn SOD: CuZn superoxide dismutase, O2.- scavenging enzyme
rate of .NO consumption (HbA and HbS red cells [2]): did not impact on the rate of .NO consumption | rates of O2.— production enhanced by xanthine (aorta of SCD mice): returned to basal rates

heparin
effect on XO binding to endothelium [10]: partially displaced | reversal of XO-induced reduction of vasodilation in response to acetylcholine (aortic rings [4]): reversible; also recorded: abrogated | restoration of endothelial-dependent relaxation (aortic rings [6]): partially restored endothelial-dependent relaxation; also recorded: significantly reversed
